From patent publication US8802635B2, “Antioxidant, anti-inflammatory, anti-radiation, metal chelating compounds and uses thereof” (Oneday—Biotech And Pharma Ltd., priority 2011, dated 2014)
Starred links: 1 amine or outer side, 2 acyl side, 3 side chain; linkers in the order of their positions; H or OH if unused. Non-standard residues stand in square brackets, D forms with d. γGlu = O=C(O)[C@H](CCC(=O)[*:2])N[*:1]

Legend:
[1] = system: alanine aminotransferase (ALT) in plasma / liver necrosis; experiment: Concanavalin A-induced liver inflammation in C57BL/6 mice; format: in vivo; settings: ConA dose 180 μg/mouse
Procedure: Six groups of C57BL/6 female mice (7-8 weeks old) containing 6 mice in each group were injected i.p. with different peptide on days −3, −2, −1 at a dose of 50 mg/kg or with PBS alone. On day zero all the mice were injected i.v. with 250 μg/mouse of Con A and 45 min. later they were injected i.p. with 150 mg/kg of each peptide or PBS.
Eight hours after Con A injection mice were bled into heparinized tubes (approx. 150 ul of blood from each mouse) and the levels of alanine aminotransferase (ALT) was measured in the plasma.
One day later the mice were sacrificed and their livers were placed in 4% formalin and sent for pathological examination.
Next, peptide DY-66 was examined and compared to N-acetylcysteine (NAC), CB3 and CB4. The compounds were tested according to the procedure described above. ConA dose was 180 μg/mouse.
FIG. 8 presents the change in ALT levels (%) for each of the tested compounds compared to PBS treatment (i.e., the ratio between ALT levels in samples obtained from mice treated with a tested compound and ALT levels in samples obtained from PBS-treated mice)

[2] = system: malondialdehyde (MDA) in lung tissue; experiment: MDA (lipid peroxidation) in lung, zymosan-induced inflammation; format: in vivo, mice; settings: i.p. 3x50 mg/kg before, 120 mg/kg 30 min before and 5 h after zymosan; 24 h; p<0.05
Procedure: Male BALB/c mice were randomly allocated into the following experimental groups (8 mice for each group):
The peptides were administered by an intraperitoneal (i.p.) route of administration as follows: • The first dose (50 mg per kg) was given 3 days before the zymosan injection. • The second dose (50 mg per kg) was given 2 days before the zymosan injection. • The third dose (50 mg per kg) was given 1 day before the zymosan injection. • The fourth dose (120 mg per kg) was given 30 minutes before the zymosan injection. • The fifth dose (120 mg per kg) was given 5 hours after the zymosan injection.
The peptides were formulated in D5W (5% dextrose in water, “D5W”). The vehicle control was D5W. At 24 hours after administration of zymosan, animals were euthanized and assessed for inflammation by an MDA (malondialdehyde) analysis of lung tissue. All the materials and drugs (apart from the peptides) were obtained from Sigma, Inc.
Malondialdehyde (MDA) formation was used to quantify lipid peroxidation, measured as thiobarbituric acid-reactive material. […] After cooling to room temperature, samples were cleared by centrifugation at 10,000 g for 10 min and absorbance was measured at 532 nm using 1,1,3,3-tetramethoxypropane as an external standard. The level of lipid peroxides was expressed as nM MDA/mg protein.

IkappaBalpha = experiment: Cytoplasmic stability of I-kappaBalpha in lung, zymosan-induced inflammation; format: in vivo, mice; settings: lung tissue, 24 hours after zymosan
Procedure: Male BALB/c mice were randomly allocated into the following experimental groups:
The peptides were administered by an intraperitoneal (i.p.) route of administration as described in Example 3.
The peptides were formulated in D5W as described in Example 3. The vehicle control was D5W.
At 24 hours after administration of zymosan, animals were euthanized and assessed for inflammation by an NF-κB analysis of lung tissue.
Tissues were homogenized and nuclear extracts prepared via centrifugation. ELISA for IkappaBalpha was performed, using a series of standards in order to define absolute concentrations.

[3] = system: JNK (c-Jun N-terminal kinases); experiment: Inhibition of oxidative stress (auranofin)-induced JNK phosphorylation in SH-SY5Y cells; format: cell-based, Human; settings: auranofin 5 μM
Procedure: (§1) Human neuroblastoma SH-SY5Y cells were maintained in Dulbecco's modified Eagle's medium (DMEM, Invitrogen) supplemented with 10% fetal bovine serum (Invitrogen), 100 μg/ml streptomycin and 100 U/ml penicillin G (Gibco). Cells were plated at a density of 6.25×10^4/cm^2 and incubated for 24 hours, after which they were exposed to different treatments.
(§2) SH-SY5Y cells were plated on 96-well plates and treated with Auranofin (AuF) (5 μM) for 30 min. Then the cells were washed with PBS and treated with either one of the peptides at the indicated concentrations. Twenty-four hours later, the cells were fixed with glutaraldehyde in final concentration of 0.5% for 10 min. Cells were washed 3 times with DDW dried over night, and washed once with borate buffer (0.1M, pH 8.5). The fixed cells were stained with 200 μl of 1% methylene blue dissolved in borate buffer for 1 hour. After extensive washing and drying, the color was extracted with 200 μl of 0.1 M HCl for 1 h at 37° C. and absorbance was read in spectrophotometer at 630 nm.
(§3) Twenty to thirty micrograms of protein samples were loaded on 10-12% SDS-PAGE gels. The proteins were then transferred electrophoretically to nitrocellulose (Whatman, Germany). The blots were blocked by incubation for 1 h at room temperature (RT) in TBS-T (25 mM Tris-HCl pH 7.4, 0.9% NaCl and 0.02% Tween-20) with 4% Difco skim milk (BD, USA), and incubated over-night at 4° C. with the primary antibody: pERK1/2 (Thr 202/Tyr204), mouse mAb, (1:6,000); p-SAPK/JNK (Thr183/Tyr185), rabbit mAb; SAPK/JNK, mouse mAb; p-p38MAP Kinase (Thr180/Tyr182), rabbit mAb; cleaved caspase 3, rabbit mAb. All antibodies were from Cell Signaling Tech. USA, used at 1:1000. Purified b Catenin, mouse mAb, (1:10,000; BD Transduction Laboratories, USA) diluted in 5% BSA, 0.04% Azide in TBS-T. Proteins were detected with Anti-Mouse or Anti-Rabbit IgG-HRP linked antibody (1:10,000; Cell Signaling, Tech. USA).

p38 MAP Kinase = experiment: Inhibition of oxidative stress (auranofin)-induced p38 phosphorylation in SH-SY5Y cells; format: cell-based, Human; settings: auranofin 5 μM
Procedure: as §1, §2, §3

[4] = system: cellularity of the peritoneal exudates; experiment: Ovalbumin-induced hypersensitivity (allergic peritonitis): peritoneal cellularity; format: in vivo, mice; settings: 125 mg/kg i.p. on days 13, 14, 15
Procedure: (§4) Male BALB/c mice (6-8 weeks old) were housed under specific pathogen-free conditions and maintained on a 12-hour light/dark cycle, with food and water ad libitum. All materials and drugs were obtained from Sigma, Inc.
(§5) Mice in Groups A, B, C, and E (n=10 per group) were sensitized with intraperitoneal (i.p.) 200 μl of sterile PBS containing 100 μg ovalbumin (OVA) and 1.6 mg alum on days 0 and 7, and challenged with intraperitoneal (i.p.) 200 μl of sterile PBS containing 10 μg ovalbumin (OVA) on day 14 in order to induce an experimental model of allergic peritonitis. Mice in Group F (n=10) were injected with intraperitoneal (i.p) 200 μl sterile PBS (“sham” group, no OVA and no Alum).
(§6) Mice in Groups A, B, and C, were treated with 150 μl of sterile PBS containing peptides DY-66, DY-65 and DY-70, respectively, at a dose of 125 mg/kg on days 13, 14, and 15 via an i.p. route of administration.
(§7) Mice in Groups E and F were treated with 150 μl of sterile PBS on days 13, 14, and 15 via an i.p. route of administration. On day 14 the test articles (or PBS vehicle) were injected 30 minutes before injecting the OVA.

anti-OVA serum IgE = experiment: Ovalbumin-induced hypersensitivity: serum anti-OVA IgE; format: in vivo, mice; settings: 125 mg/kg i.p. on days 13, 14, 15; blood day 16
Procedure: as §4, §5, §6, §7
Blood taken on day 16 was tested for 1) serum anti-OVA IgE, 2) white blood cell count and differential (including absolute and percentage of eosinophils count). Serum was frozen at −80° C. for future optional blood tests.

HaCaT cells [5] = experiment: Hydrogen peroxide-induced HaCaT keratinocyte cytotoxicity (MTT); format: cell-based; settings: for protection of cell viability after hydrogen peroxide exposure (in words): 90 μM hydrogen peroxide 30 min, MTT after 72 hours
Procedure: All five peptides were examined in this Example, and their activity was compared to the known CB3 peptide. HaCaT cells were seeded in 96-well plate at a concentration of 10×10^4 cells/ml for 24 hours. Then cells were incubated with the peptides at the indicated concentrations for 2.5 hours followed by washing with PBS and incubation with 90 μM hydrogen peroxide (without peptide) for 30 minutes. Cells were washed with PBS and incubated with culture medium containing peptide for 72 hours. Cell viability was tested by MTT. The effect of the peptides on cell viability was performed similarly without hydrogen peroxide exposure.

HaCaT cells [6] = experiment: UVB-induced cytotoxicity in HaCaT cells (MTT); format: cell-based; settings: UVB 0.05 J/cm^2; MTT after 72 hours
Procedure: HaCaT cells were seeded in 96-wells plate (10×10^4/ml) and incubated in 37° C., 6% CO2 for 24 hours. Cells were incubated with the peptides at the indicated concentrations for 2.5 hours and washed (PBS). Then 100 μl PBS were added to each well followed by UVB irradiation (0.05 J/cm^2). Cells were washed with PBS and incubated with culture medium (DMEM, 100 μl) containing the peptides. MTT assay was carried out after 72 hours.

[7] = Metal chelation: copper binding by mass spectra (ESI); settings: 0.83 mM peptide, 1.66 mM CuSO4, 1 hour room temperature
Procedure: (§8) All five peptides were examined for their ability to bind copper and ferric ions. 0.83 mM of each peptide were mixed with 1.66 mM of either FeCL3 or CuSO4. The mixtures were incubated for 1 hour at room temperature and further kept at ° 4 C until analysis. Samples were analyzed by mass spectra (ESI).

[8] = Metal chelation: ferric ion binding by mass spectra (ESI); settings: 0.83 mM peptide, 1.66 mM FeCL3, 1 hour room temperature
Procedure: as §8

[9] = system: carrageenan-induced hind paw swelling; experiment: Carrageenan-induced hind paw swelling; format: in vivo, mice; settings: 150 mg/kg i.p. 30 min prior to carrageenan
Procedure: The above new five peptides were examined for anti-inflammatory activity, and their activity was compared to that of peptide CB3. Male ICR mice received an i.p. administration of each of the tested peptide (150 mg/kg) 30 min prior to the injection of carrageenan into the sub-plantar area of both of the animal's hind paws. Carrageenan was dissolved in water at concentration of 3 mg/ml and injected at a volume of 50 μl. Hind paw thickness was measured by Mitutoyo® micrometer before carrageenan injection and afterward at intervals of 1 hour between each measurement. Swelling was calculated as the difference between the thickness of the hind paw measured at each time interval and its size at time 0 (before carrageenan injection). n=6 foot pads (3 animals) for each group.

IC50 [3] [µM] | IC50 (p38 MAP Kinase) [µM] | Compound | ALT level compared to PBS-treated mice (in words) [1] | protection of cell viability after hydrogen peroxide exposure (in words) (HaCaT cells [5]) | hind paw swelling compared to control (in words) [9] | further results
– | – | CC(=O)N[C@@H](CS)C(=O)O [NAC, N-acetylcysteine, reference compound] | did not induce a significant change in ALT level | – | – | –
– | – | N-acetyl-Cys-Gly-Pro-Cys-NH2 (Ac-CGPC-NH2; cysteine pairing not given here) [CB4, reference compound] | highly increased ALT level | – | – | –
22.1 | 22.2 | N-acetyl-Cys-Met-Lys-Cys-NH2 (Ac-CMKC-NH2; cysteine pairing not given here) [DY-70] | – | fully protected the cells from hydrogen peroxide | – | effect on zymosan-induced elevation of MDA in lung tissue (in words) [2]: inhibited the elevation in MDA concentration; rank order of efficacy on cytoplasmic IkappaBalpha (IkappaBalpha): DY-70>DY-65>DY-66; effect on OVA-induced elevation of peritoneal exudate cellularity (in words) [4]: significantly reduced the elevation; rank order of reduction of peritoneal exudate cellularity [4]: DY-65>DY-70>DY-66; effect on OVA-induced elevation of anti-OVA serum IgE titer (in words) (anti-OVA serum IgE): significantly reduced the elevation; rank order of reduction of anti-OVA serum IgE titer (anti-OVA serum IgE): DY-65>DY-70>DY-66; protection against UVB-induced cytotoxicity (in words) (HaCaT cells [6]): protective effect at low concentrations; copper binding (in words) [7]: low degree; FeCl binding (in words) [8]: low degree
– | – | N-acetyl-Cys-Pro-Cys-NH2 (Ac-Cys-Pro-Cys-NH2; cysteine pairing not given here) [CB3, reference compound] | highly increased ALT level | slightly elevated cell viability | did not show a significant reduction | –
82.3 | 46.9 | N-acetyl-Cys-γGlu-Cys-Cys-NH2 (Ac-C[γGlu]CC-NH2; cysteine pairing not given here) [DY-71] | – | slightly elevated cell viability | – | –
67.3 | 36.5 | N-acetyl-Cys-γGlu-Cys-NH2 (Ac-Cys-[γGlu]-Cys-NH2; cysteine pairing not given here) [DY-67] | – | – | Reduced swelling compared to control | increase in cell viability (HaCaT cells [5]; concentrations of 1-10 μM): about 45%
